Drawing on PubChem BioAssay AID1259407 (Chemical Carcinogenesis Research Information System (CCRIS), 2018), this text covers mutagenic call for five compounds.

The series has as its system CCRIS mutagenicity, Ames/micronucleus/aberration tests. Kind of series: CCRIS mutagenicity studies.
[1] abbreviates: Test System: AMES SALMONELLA TYPHIMURIUM, Strain/Indicator: TA98, Metabolic Activation: NONE, Method: PREINCUBATION
[2] abbreviates: Test System: AMES SALMONELLA TYPHIMURIUM, Strain/Indicator: TA100, Metabolic Activation: NONE, Method: PREINCUBATION
Setting [3] is: Test System: AMES SALMONELLA TYPHIMURIUM, Strain/Indicator: TA100, Metabolic Activation: NONE, Method: STANDARD PLATE.
Setting [4] is: Test System: AMES SALMONELLA TYPHIMURIUM, Strain/Indicator: TA98, Metabolic Activation: NONE, Method: STANDARD PLATE.

The source made the active and inactive calls. The rule behind the calls is not given here.

Turning to `Nc1cccc([N+](=O)[O-])c1N`, the mutagenic call was “active; positive” (Test System: AMES SALMONELLA TYPHIMURIUM, Strain/Indicator: TA98(NR), Metabolic Activation: NONE, Method: PREINCUBATION); “active; positive” (Test System: AMES SALMONELLA TYPHIMURIUM, Strain/Indicator: TA98(NR), Metabolic Activation: RAT, LIVER, S-9, AROCLOR 1254, Method: PREINCUBATION); “active; positive” under setting [1]; “active; positive” (Test System: AMES SALMONELLA TYPHIMURIUM, Strain/Indicator: TA100(NR), Metabolic Activation: NONE, Method: PREINCUBATION); “active; positive” (Test System: AMES SALMONELLA TYPHIMURIUM, Strain/Indicator: TA100(NR), Metabolic Activation: RAT, LIVER, S-9, AROCLOR 1254, Method: PREINCUBATION); “active; positive” under setting [2]. Further, the mutagenic call is “active; positive” under setting [3]; “active; positive” (Test System: AMES SALMONELLA TYPHIMURIUM, Strain/Indicator: TA104, Metabolic Activation: NONE, Method: STANDARD PLATE); “inactive; negative” (Test System: AMES SALMONELLA TYPHIMURIUM, Strain/Indicator: TA4001, Metabolic Activation: NONE, Method: STANDARD PLATE); “active; positive” (Test System: AMES SALMONELLA TYPHIMURIUM, Strain/Indicator: TA4006, Metabolic Activation: NONE, Method: STANDARD PLATE); “active; positive” (Test System: AMES SALMONELLA TYPHIMURIUM, Strain/Indicator: TA7001, Metabolic Activation: NONE, Method: STANDARD PLATE); “inactive; negative” (Test System: AMES SALMONELLA TYPHIMURIUM, Strain/Indicator: TA7001, Metabolic Activation: RAT LIVER S-9, AROCLOR 1254, Method: STANDARD PLATE). Further, the mutagenic call (Test System: AMES SALMONELLA TYPHIMURIUM, Strain/Indicator: TA7002, Metabolic Activation: NONE, Method: STANDARD PLATE) was “active; positive”; the mutagenic call (Test System: AMES SALMONELLA TYPHIMURIUM, Strain/Indicator: TA7003, Metabolic Activation: NONE, Method: STANDARD PLATE) was “active; positive”; the mutagenic call (Test System: AMES SALMONELLA TYPHIMURIUM, Strain/Indicator: TA7003, Metabolic Activation: RAT LIVER S-9, AROCLOR 1254, Method: STANDARD PLATE) is “inactive; negative”; the mutagenic call (Test System: AMES SALMONELLA TYPHIMURIUM, Strain/Indicator: TA7004, Metabolic Activation: NONE, Method: STANDARD PLATE) is “active; positive”; the mutagenic call (Test System: AMES SALMONELLA TYPHIMURIUM, Strain/Indicator: TA7004, Metabolic Activation: RAT LIVER S-9, AROCLOR 1254, Method: STANDARD PLATE) is “inactive; negative”; the mutagenic call (Test System: AMES SALMONELLA TYPHIMURIUM, Strain/Indicator: TA7005, Metabolic Activation: NONE, Method: STANDARD PLATE) is “active; positive”. Besides, the mutagenic call is, setting by setting: (Test System: AMES SALMONELLA TYPHIMURIUM, Strain/Indicator: TA7006, Metabolic Activation: NONE, Method: STANDARD PLATE) “inactive; negative”; (Test System: CHINESE HAMSTER OVARY, Strain/Indicator: CHO-K1-BH4 (HGPRT), Metabolic Activation: NONE, Method: SUSPENSION/PLATE) “active; positive”.
Turning to `CCc1ccccc1O`, the mutagenic call (Test System: AMES SALMONELLA TYPHIMURIUM, Strain/Indicator: TA97, Metabolic Activation: HAMSTER, LIVER, S-9, AROCLOR 1254 (10 OR 30%), Method: PREINCUBATION) was “inactive; negative”; the mutagenic call (Test System: AMES SALMONELLA TYPHIMURIUM, Strain/Indicator: TA97, Metabolic Activation: NONE, Method: PREINCUBATION) is “inactive; negative”; the mutagenic call (Test System: AMES SALMONELLA TYPHIMURIUM, Strain/Indicator: TA97, Metabolic Activation: RAT, LIVER, S-9, AROCLOR 1254 (10 OR 30%), Method: PREINCUBATION) is “inactive; negative”; the mutagenic call (Test System: AMES SALMONELLA TYPHIMURIUM, Strain/Indicator: TA98, Metabolic Activation: HAMSTER, LIVER, S-9, AROCLOR 1254 (10 OR 30%), Method: PREINCUBATION) is “inactive; negative”; the mutagenic call under setting [1] was “inactive; negative”; the mutagenic call (Test System: AMES SALMONELLA TYPHIMURIUM, Strain/Indicator: TA98, Metabolic Activation: RAT, LIVER, S-9, AROCLOR 1254 (10 OR 30%), Method: PREINCUBATION) was “inactive; negative”. The mutagenic call by setting is: (Test System: AMES SALMONELLA TYPHIMURIUM, Strain/Indicator: TA100, Metabolic Activation: HAMSTER, LIVER, S-9, AROCLOR 1254 (10 OR 30%), Method: PREINCUBATION) “inactive; negative”; under setting [2], “inactive; negative”; (Test System: AMES SALMONELLA TYPHIMURIUM, Strain/Indicator: TA100, Metabolic Activation: RAT, LIVER, S-9, AROCLOR 1254 (10 OR 30%), Method: PREINCUBATION) “inactive; negative”; (Test System: AMES SALMONELLA TYPHIMURIUM, Strain/Indicator: TA1535, Metabolic Activation: HAMSTER, LIVER, S-9, AROCLOR 1254 (10 OR 30%), Method: PREINCUBATION) “inactive; negative”; (Test System: AMES SALMONELLA TYPHIMURIUM, Strain/Indicator: TA1535, Metabolic Activation: NONE, Method: PREINCUBATION) “inactive; negative”; (Test System: AMES SALMONELLA TYPHIMURIUM, Strain/Indicator: TA1535, Metabolic Activation: RAT, LIVER, S-9, AROCLOR 1254 (10 OR 30%), Method: PREINCUBATION) “inactive; negative”.
For `O=C(c1ccc([N+](=O)[O-])cc1)n1ncc(Cl)c(Cl)c1=O`, the mutagenic call runs as follows: under setting [4], “inactive; negative”; (Test System: AMES SALMONELLA TYPHIMURIUM, Strain/Indicator: TA98, Metabolic Activation: RAT, LIVER, S-9, AROCLOR 1254, Method: STANDARD PLATE) “inactive; negative”; under setting [3], “active; positive”; (Test System: AMES SALMONELLA TYPHIMURIUM, Strain/Indicator: TA100, Metabolic Activation: RAT, LIVER, S-9, AROCLOR 1254, Method: STANDARD PLATE) “active; positive”; (Test System: AMES SALMONELLA TYPHIMURIUM, Strain/Indicator: TA1535, Metabolic Activation: NONE, Method: STANDARD PLATE) “active; positive”; (Test System: AMES SALMONELLA TYPHIMURIUM, Strain/Indicator: TA1535, Metabolic Activation: RAT, LIVER, S-9, AROCLOR 1254, Method: STANDARD PLATE) “active; positive”. Further, the mutagenic call (Test System: AMES SALMONELLA TYPHIMURIUM, Strain/Indicator: TA1537, Metabolic Activation: NONE, Method: STANDARD PLATE) is “inactive; negative” and the mutagenic call (Test System: AMES SALMONELLA TYPHIMURIUM, Strain/Indicator: TA1537, Metabolic Activation: RAT, LIVER, S-9, AROCLOR 1254, Method: STANDARD PLATE) was “inactive; negative”.
Take `CN1CCN(C)CC1`: the mutagenic call runs as follows: under setting [1], “inactive; negative”; (Test System: AMES SALMONELLA TYPHIMURIUM, Strain/Indicator: TA98, Metabolic Activation: RAT, LIVER, S-9, PCB, Method: PREINCUBATION) “inactive; negative”; under setting [2], “inactive; negative”; (Test System: AMES SALMONELLA TYPHIMURIUM, Strain/Indicator: TA100, Metabolic Activation: RAT, LIVER, S-9, PCB, Method: PREINCUBATION) “inactive; negative”.
As for `Cc1cccc(N=Nc2c(O)ccc3ccccc23)c1C`, the mutagenic call under setting [4] was “inactive; negative”; the mutagenic call (Test System: AMES SALMONELLA TYPHIMURIUM, Strain/Indicator: TA98, Metabolic Activation: RAT, LIVER, S-9, Method: STANDARD PLATE) is “inactive; negative”; the mutagenic call under setting [3] was “inactive; negative”; the mutagenic call (Test System: AMES SALMONELLA TYPHIMURIUM, Strain/Indicator: TA100, Metabolic Activation: RAT, LIVER, S-9, Method: STANDARD PLATE) is “inactive; negative”.
